Laboratory results reported in patent US20250205231A1, “Tear Film Stability” (priority 2012, published 2025).
Where “and” joins values, the source holds several entries; their conditions need not be identical. Equal values may be shown once. Entries after “also recorded” stand apart in the source; their conditions may differ.

How the values were obtained:
[1] = system: patients with dry eye and blepharitis; assay: Corneal fluorescein staining (National Eye Institute scoring 0-15), topical statin pilot study; format: in vivo, human
Excerpt: (§1) Aim: To investigate topical statin as a novel therapy for dry eyes associated with blepharitis. Methods: 10 patients with symptoms and signs of dry eye and blepharitis were enrolled in a prospective pilot study of topical statin therapy over 1 month. The primary outcome measure was corneal fluorescein staining. Results: An Improvement in corneal fluorescein staining by a 3 points from baseline to completion of the trial at week four was found in 6 of 10 patients in the study eye. Subjective dry eye symptoms improved (p=0.005). […] Conclusions: Topical statins are a suitable therapy for patients with dry eye and blepharitis. They can be easily manufactured and could be widely available.
(§2) 10 patients were enrolled and completed the study.
(§3) Patients with • 1) Any symptoms of dry eyes and blepharitis • 2) Any signs of dry eyes: • BUT (tear break up time)≤5 sec, or • Punctate epithelial erosions in at least one eye • 3) Any signs of blepharitis: • Anterior lid margin—grease, skin scales, collarets, frank ulcers, loss of lashes and inflammation • Posterior lid margin—cheesy secretions, blocked meibomian glands >⅓, telangiectasia, meibomitis, notched lid margin and chalaza • 4) Male or female patients greater or equal to 18 years of age • 5) Patients able to give written informed consent and comply with study protocol
(§4) • 1) Subjective • Total symptoms score • Face score (Goto et al 2002) • 2) Objective • a) Tear film break-up time (BUT) • b) Corneal fluorescein staining • b) Blepharitis score • c) Bulbar conjunctival injection • d) Concomitant use of topical therapy
(§5) Patients were evaluated at weeks 1, 2, 3 and 4. However, the primary endpoint was at trial completion (4 weeks). A p value <0.050 was considered statistically significant.

[2] = system: patients with dry eye and blepharitis; assay: Tear film break-up time (BUT), topical statin pilot study; format: in vivo, human; conditions: 1 month topical therapy
Excerpt: as §1, §2
as §3, with “protocol […]” for “protocol”
(§6) Patients were evaluated at weeks 1, 2, 3 and 4. […]

[3] = system: patients with dry eye and blepharitis; assay: Blepharitis score, topical statin pilot study; format: in vivo, human; parameters: Blepharitis score: scale not given here
Excerpt: as §1, §2
as §3, with “protocol […]” for “protocol”
as §6

[4] = system: patients with dry eye and blepharitis; assay: Schirmer I test, topical statin pilot study; format: in vivo, human; conditions: baseline to week four
Excerpt: as §1, §2, §3, §6

[5] = system: patients with dry eye and blepharitis; assay: Subjective dry eye symptom scores (global and individual), topical statin pilot study; format: in vivo, human; parameters: Global Symptom score: scale not given here
Excerpt: as §1, §2, §3, §4, §5

[6] = system: patients with dry eye and blepharitis; assay: Face score (facial analogue scale, Goto et al 2002), topical statin pilot study; format: in vivo, human; parameters: Facescale score: scale not given here
Excerpt: as §1, §2
as §3, with “protocol […]” for “protocol”
as §6

[7] = system: patients with dry eye and blepharitis; assay: Concomitant use of topical lubricants, topical statin pilot study; format: in vivo, human
Excerpt: as §2, §4
Prior to the study, 6 patients were using topical lubricants an average of 6 times a day (range 2 to 8. SD 2.3); 4 of these patients were using preservative-free lubricants. At study completion, 2 patients had ceased their topical lubrication, and 3 of the remaining 4 patients had reduced the frequency of lubricant use to an average of 4 times a day (range 3 to […]). […] One patient had had punctal occlusion in the study eye. 4 patients were performing lid massage with hot compresses and 4 were using a cotton bud for lid hygiene, 1 with bicarbonate of soda solution and 2 with shampoo. Patients were asked not to change these regimes during the study period.

[8] = system: patients with dry eye and blepharitis; assay: Safety evaluation: cataract and adverse reactions; format: in vivo, human
Excerpt: as §2

[9] = system: patients with dry eye and blepharitis; assay: Safety evaluation: intraocular pressure (IOP); conditions: baseline to study completion
[10] = system: patients with dry eye and blepharitis; assay: Safety evaluation: best-corrected visual acuity (BCVA); conditions: baseline to study completion
[11] = 1 month, study eye, individual patients 1-10, listed as topical statin

CC(C)c1c(C(=O)Nc2ccccc2)c(-c2ccccc2)c(-c2ccc(F)cc2)n1CC[C@@H](O)C[C@@H](O)CC(=O)O [Atorvastatin]
Corneal fluorescein score ([1]; 1 month, NEI scale 0-15, individual patients 1-10, 50 microM, 8 times a day, listed as topical statin): 1 (2×) and 0 (4×) and 2 (3×) and 4
Patients with improvement in corneal fluorescein staining by three or more points ([1]; of 10 patients, baseline to week four): 6 patients
Patients with corneal fluorescein staining score improved by more than one point ([1]; of the 10 patients): 9 patients
Effect on tear film break-up time (in words) [2]: significantly improved
Effect on blepharitis score (in words) ([3]; 1 month topical therapy): significantly improved
Blepharitis score [3, 11]: 7 (2×) and 5 (3×) and 4 (3×) and 2 (2×)
Change in Schirmer I test result (in words) [4]: no significant change
Effect on subjective dry eye symptoms (in words) ([5]; 1 month topical therapy): improved
Global Symptom score [5, 11]: 5 and 0 (5×) and 3 and 4 and 1 and 2
Change in blurred vision score (in words) ([5]; enrolment to week four): no significant change
Change in discomfort score (in words) ([5]; enrolment to week four): significant improvement
Change in dryness score (in words) ([5]; enrolment to week four): significant improvement
Change in foreign body sensation score (in words) ([5]; enrolment to week four): significant improvement
Change in photophobia score (in words) ([5]; enrolment to week four): no significant change
Change in redness score (in words) ([5]; enrolment to week four): significant improvement
Change in watering score (in words) ([5]; enrolment to week four): significant improvement
Facescale score ([6]; 1 month, facial analogue scale, individual patients 1-10, listed as topical statin): 4 (3×) and 1 and 3 (2×) and 5 (3×) and 2
Change in face score (in words) ([6]; enrolment to week four): significant improvement
Patients who had ceased their topical lubrication at study completion ([7]; of 6 patients using topical lubricants prior to the study): 2 patients
Patients who had reduced the frequency of lubricant use ([7]; of the remaining 4 patients, at study completion): 3 patients
Average frequency of lubricant use at study completion ([7]; range 3 to 6, SD 0.6, prior to the study average 6 times a day): 4 times a day
Adverse events / side-effects ([8]; 1 month topical therapy, both eyes, 10 patients, listed as topical statin): no serious or irreversible side-effects; also recorded: No adverse events were reported
Cataract development ([8]; baseline to study completion): no patient developed cataract
Change in IOP, study eye (in words) [9]: no change
Change in BCVA, fellow eye (in words) [10]: no significant change
Change in BCVA, study eye (in words) [10]: no significant change
